Laboratory results published in paper PMC9942557, “Bolaamphiphile Analogues of 12-bis-THA Cl2 Are Potent Antimicrobial Therapeutics with Distinct Mechanisms of Action against Bacterial, Mycobacterial, and Fungal Pathogens” (mSphere, 2022).
In brackets after ≈: the same amount, converted by molar mass. Where two headings read alike, the source gives them in different places.

Tests used:
C. parapsilosis 3209 = assay: Broth microdilution MIC; format: cell-based
C. parapsilosis = assay: Broth microdilution MIC; format: cell-based
C. tropicalis 8760 = assay: Broth microdilution MIC; format: cell-based
C. albicans 3179 = assay: Broth microdilution MIC; format: cell-based, Candida albicans
C. krusei 3876 = assay: Broth microdilution MIC; format: cell-based
C. glabrata 8018 = assay: Broth microdilution MIC; format: cell-based
C. auris temp probe = assay: Broth microdilution MIC; format: cell-based, Candida auris
C. albicans 3281 = assay: Broth microdilution MIC; format: cell-based, Candida albicans
[1] = system: VR Enterococcus faecalis NCTC 12201; assay: Broth microdilution MIC; format: cell-based; conditions: VR Enterococcus faecalis NCTC 12201
[2] = system: EMR Staphylococcus aureus 15 NCTC 13616; assay: Broth microdilution MIC; format: cell-based; conditions: EMR Staphylococcus aureus 15 NCTC 13616
HEK293 = assay: In vitro toxicity for cell line; format: cell-based, human; conditions: HEK293; average ± standard error from 3 independent repeats
Excerpt: (§1) TABLE 2 Toxicity of bolaamphiphiles for two cell lines^a | column: Toxicity (EC50 [μg/ml]) of: / 12-bis-THA Cl2; Toxicity (EC50 [μg/ml]) of: / Dequalinium; Toxicity (EC50 [μg/ml]) of: / Quino-bola; Toxicity (EC50 [μg/ml]) of: / Penta-bola; Toxicity (EC50 [μg/ml]) of: / Hepta-bola; Toxicity (EC50 [μg/ml]) of: / Octa-bola; Toxicity (EC50 [μg/ml]) of: / Octa-C10; Toxicity (EC50 [μg/ml]) of: / Octa-C8; Toxicity (EC50 [μg/ml]) of: / Octa-C6

HeLa = assay: In vitro toxicity for cell line; format: cell-based, human; conditions: average ± standard error from 3 independent repeats
Excerpt: as §1

[3] = system: VR Enterococcus faecium NCTC 12204; assay: Broth microdilution MIC; format: cell-based; conditions: VR Enterococcus faecium NCTC 12204
[4] = system: Escherichia coli NCTC 12923; assay: Broth microdilution MIC; format: cell-based
[5] = system: Klebsiella pneumoniae NCTC 13368; assay: Broth microdilution MIC; format: cell-based
[6] = system: Pseudomonas aeruginosa NCTC 13437; assay: Broth microdilution MIC; format: cell-based
P. aeruginosa PAO1 [7] = assay: Checkerboard synergy assay; format: cell-based, Pseudomonas aeruginosa
[8] = system: Acinetobacter baumannii ATCC 17978; assay: Broth microdilution MIC; format: cell-based
Klebsiella pneumoniae M6 = assay: Broth microdilution MIC; format: cell-based
[9] = system: Acinetobacter baumannii AYE; assay: Broth microdilution MIC; format: cell-based; conditions: Acinetobacter baumannii AYE
[10] = system: pBR322 plasmid, wheat germ topoisomerase I; assay: DNA unwinding assay; format: biochemical
Experimental: A DNA unwinding assay kit (Inspiralis Limited, Norwich, UK) consists of wheat germ topoisomerase I assay buffer (50 mM Tris HCl [pH 7.9], 1 mM EDTA, 1 mM dithiothreitol [DTT], 20% [vol/vol] glycerol, 50 mM NaCl) dilution buffer (50 mM Tris HCl [pH 7.9], 1 mM EDTA, 1 mM DTT, 50% [vol/vol] glycerol, 500 mM NaCl), wheat germ topoisomerase I (5 U/μL), supercoiled plasmid pBR322 (1 μg/μL), and relaxed plasmid pBR322 (1 μg/μL). For the experiments, 2× DNA loading buffer containing 40% (wt/vol) sucrose, 100 mM Tris-HCl (pH 8), 1 mM EDTA, and 0.5 mg/mL bromophenol blue was prepared. The enzyme was diluted 1/5 with dilution buffer before being used in the assay. For the assay, 3 mM stock solutions in methanol of the compounds to be tested were prepared. An appropriate number of 1.5-mL Eppendorf tubes were filled with 25 μL of a mix consisting of assay buffer (15 μL of buffer per sample), supercoiled or relaxed pBR322 (0.5 μg/assay), and ultrapure water. In the first two tubes, 1 μL of methanol was added to test the effect of the solvent on both the plasmid and the enzyme. Subsequently, 1 μL of the test compounds was added to the remaining tubes, and the tubes briefly vortexed and incubated at room temperature for 5 min. After that, 2 μL of dilution buffer was added in the first tube, whereas 2 μL of enzyme diluted solution was added to the remaining tubes. The tubes were gently vortexed and incubated for 30 min at 37°C in a water bath. After this time, the reaction was stopped by adding 20 μL of water and 50 μL of water-saturated butanol to each tube. The tubes were vortexed and centrifuged for 1 min at 14,800 rpm. The lower aqueous layer of each tube was removed and transferred to a new tube containing 30 μL of chloroform-isoamyl alcohol (24/1) and 50 μL of loading buffer. The tubes were briefly vortexed and centrifuged for 1 min. Twenty microliters of the upper layer of each tube was loaded onto a 1% (wt/vol) agarose gel, and the gel was run at 80 V for approximately 4 h in Tris-acetate-EDTA buffer (40 mM Tris acetate and 1 mM EDTA). Subsequently, the gel was stained with ethidium bromide (1 μg/mL) for 15 min, briefly destained (5 to 10 min) in water, and visualized with a Multi-Doc Imaging M-26X UVP transilluminator.

[11] = system: EMR Staphylococcus aureus 16 NCTC 13277; assay: Broth microdilution MIC; format: cell-based; conditions: EMR Staphylococcus aureus 16 NCTC 13277
[12] = system: Pseudomonas aeruginosa PAO1; assay: Broth microdilution MIC; format: cell-based
[13] = system: VS Enterococcus faecalis NCTC 775; assay: Broth microdilution MIC; format: cell-based
[14] = system: Escherichia coli ATCC 25922; assay: Intrahemocoelic G. mellonella infection model; format: in vivo, Galleria mellonella; conditions: single 10-mg/kg dose 1 h after infection
Experimental: The antimicrobial activities of DQC, CM2, and its analogues Quino-bola, Penta-bola, Hepta-bola, and Octa-bola against Escherichia coli ATCC 25922 were tested in Galleria mellonella larvae. All assays were performed on two separate occasions using a group size of 10 larvae; the larvae were kept in separate petri dishes and in a static incubator at 37°C during the period of the experiment. A suspension of E. coli ATCC 25922 was prepared by transferring two colonies of E. coli ATCC 25922 from a fresh agar plate into PBS and adjusting the absorbance to a McFarland 0.5 standard. The number of CFU per milliliter of this suspension was determined and corresponded to 1 × 10^8 CFU/mL. Larvae were injected beneath the tegument with 10 μL of a 1 × 10^7-CFU/mL bacteria suspension, corresponding to 1 × 10^5 CFU per larva. A 50-μL Hamilton syringe with a G27 needle was used for the injection. […] Ten microliters of stock solution was injected into each larva 1 h after infection (10 mg/kg). Levofloxacin (LVX; 50 μg/mL = 2 mg/kg) and PBS were used as positive and negative controls, respectively. A noninfected PBS injection was included to control for the effects of injection. Survival was monitored over a period of 70 to 72 h. Changes in G. mellonella survival were analyzed by the log rank (Mantel-Cox) method and plotted as Kaplan-Meier survival curves using GraphPad Prism version 7.

P. aeruginosa PAO1 [15] = assay: Fixed-concentration (0.25× MIC bolalipid) synergy broth microdilution; format: cell-based, Pseudomonas aeruginosa; conditions: P. aeruginosa PAO1
P. aeruginosa NCTC 13437 = assay: as above; format: cell-based, Pseudomonas aeruginosa; conditions: P. aeruginosa NCTC 13437
M. tuberculosis Bleupan [16] = assay: microbe, parasite or virus in culture; format: cell-based, Mycobacterium tuberculosis
M. smegmatis mc^2 155 = assay: Broth microdilution MIC (Middlebrook 7H9); format: cell-based, Mycobacterium smegmatis
M. tuberculosis Bleupan [17] = format: in vivo, Galleria mellonella; conditions: in vivo
[18] = Lodderomyces parapsilosis, read-out: MIC
[19] = in the presence of 0.25× MIC Octa-bola (Table S1)
[20] = in the presence of 0.25× MIC Octa-C10 (Table S1)

Structure (SMILES)	MIC [1]	MIC (C. parapsilosis 3209)	MIC [2]	Toxicity (EC50) (HEK293)	Toxicity (EC50) (HeLa)	MIC (C. parapsilosis)	MIC [3]	MIC (C. tropicalis 8760; C. tropicalis 8760)	MIC [4]	MIC (C. albicans 3179; C. albicans 3179)	MIC [5]	MIC [6]	MIC (C. krusei 3876)	MIC (C. glabrata 8018; C. glabrata 8018)	MIC [8]	MIC (Klebsiella pneumoniae M6)	MIC [9]	MIC (C. auris temp probe; C. auris temp probe)	MIC [11]	MIC [12]	other results
OC(Cn1cncn1)(Cn1cncn1)c1ccc(F)cc1F [Fluconazole, reference compound]	–	–	–	–	–	–	–	–	–	–	–	–	–	–	–	–	–	–	–	–	MIC (C. parapsilosis 3209; [18]): 0.25 µg/mL (≈ 0.816 µM); MIC (C. parapsilosis; [18]): 0.5 µg/mL (≈ 1.63 µM); MIC (C. tropicalis 8760; Candida tropicalis, 8760): > 128 µg/mL; MIC (C. albicans 3179; Candida albicans, 3179): > 128 µg/mL; MIC (C. krusei 3876; Pichia kudriavzevii, read-out: MIC): 32 µg/mL (≈ 104 µM); MIC (C. glabrata 8018; Nakaseomyces glabratus, 8018): > 128 µg/mL; MIC (C. auris temp probe; Candidozyma auris): > 128 µg/mL; MIC (C. albicans 3281; Candida albicans, 3281): > 128 µg/mL
Nc1c2c([n+](CCCCCCCCCCCC[n+]3c4c(c(N)c5ccccc53)CCCCC4)c3ccccc13)CCCCC2 [Hepta-bola]	0.5 µg/mL	1 µg/mL	0.25 µg/mL	3.5 ± 1.2 µg/mL	4.5 ± 0.7 µg/mL	2 µg/mL	0.5 µg/mL	0.25 µg/mL	2 µg/mL	0.5 µg/mL	32 µg/mL	32 µg/mL	0.5 µg/mL	0.25 µg/mL	16 µg/mL	16 µg/mL	16 µg/mL	2 µg/mL	0.25 µg/mL	32 µg/mL	MIC alone Bolalipid (P. aeruginosa PAO1 [7]): 32 µg/mL; DNA intercalation ([10]; relaxed pBR322 plasmid plus topoisomerase I (Fig. 2A)): to a slightly lesser extent, Hepta-bola are intercalators; relaxation of supercoiled plasmid through the action of topoisomerase I ([10]; supercoiled pBR322 plasmid, bolalipid present (Fig. 2B)): not observed; MIC [13]: 1 µg/mL; protection (survival over 72 h) [14]: significantly protective; MIC (C. albicans 3281; C. albicans 3281): 0.5 µg/mL
C[C@@H](O)[C@H]1C(=O)N2C(C(=O)O)=C(S[C@@H]3CN[C@H](C(=O)N(C)C)C3)[C@H](C)[C@H]12 [Meropenem]	–	–	–	–	–	–	–	–	–	–	–	–	–	–	–	–	–	–	–	–	MIC of antibiotic (P. aeruginosa PAO1 [15]; No bola (Table S1)): > 2 µg/mL; MIC of antibiotic (P. aeruginosa PAO1 [15]; [19]): > 2 µg/mL; MIC of antibiotic (P. aeruginosa NCTC 13437; No bola (Table S1)): > 32 µg/mL; MIC of antibiotic (P. aeruginosa NCTC 13437; [20]): > 32 µg/mL; MIC of antibiotic (P. aeruginosa NCTC 13437; [19]): > 32 µg/mL
Nc1c2c([n+](CCCCCCCC[n+]3c4c(c(N)c5ccccc53)CCCCCC4)c3ccccc13)CCCCCC2 [Octa-C8]	4 µg/mL	4 µg/mL	1 µg/mL	12.9 ± 4.3 µg/mL	27.3 ± 1.3 µg/mL	8 µg/mL	0.5 µg/mL	1 µg/mL	8 µg/mL	2 µg/mL	32 µg/mL	32 µg/mL	4 µg/mL	2 µg/mL	32 µg/mL	32 µg/mL	32 µg/mL	4 µg/mL	1 µg/mL	32 µg/mL	MIC (M. tuberculosis Bleupan [16]): 0.49 µg/mL; MIC (M. smegmatis mc^2 155): 0.19 µg/mL; MIC [13]: 4 µg/mL; MIC (C. albicans 3281; C. albicans 3281): 2 µg/mL
CO[C@H]1/C=C/O[C@@]2(C)Oc3c(C)c(O)c4c(O)c(c(/C=N/N5CCN(C)CC5)c(O)c4c3C2=O)NC(=O)/C(C)=C\C=C\[C@H](C)[C@H](O)[C@@H](C)[C@@H](O)[C@@H](C)[C@H](OC(C)=O)[C@@H]1C [Rifampin]	–	–	–	–	–	–	–	–	–	–	–	–	–	–	–	–	–	–	–	–	MIC of antibiotic (P. aeruginosa PAO1 [15]; No bola (Table S1)): 16 µg/mL; MIC of antibiotic (P. aeruginosa PAO1 [15]; [20]): 8 to 16 µg/mL; MIC of antibiotic (P. aeruginosa PAO1 [15]; [19]): 16 µg/mL; MIC of antibiotic (P. aeruginosa NCTC 13437; No bola (Table S1)): 16 µg/mL; MIC of antibiotic (P. aeruginosa NCTC 13437; [20]): 8 µg/mL; MIC of antibiotic (P. aeruginosa NCTC 13437; [19]): 16 µg/mL; larvae rescued (M. tuberculosis Bleupan [17]): All G. mellonella larvae were rescued
